Counter-ions that a name gives are not always drawn.
Key:
[1] = target: T1, μ opioid receptor (MOR) (Mus musculus, UniProt P42866); assay: Competitive radioligand binding assay, MOR
T1 construct: expressed in transfected cells; host or cells: CHO (mMOR-CHO), membrane preparation
Protocol: (§1) The competition binding assay was performed using monoclonal mouse opioid receptors expressed in CHO cell lines (monoclonal human δ opioid receptor was used for the DOR assay).
(§2) The bound radioligand was separated using a Brandel harvester. Specific binding to the MOR, KOR, and DOR was calculated by subtracting the binding observed in the presence of 5 μM naltrexone, U50488, and SNC80, respectively, from the binding in their absence. Relative affinity values (IC50) were determined by fitting displacement binding inhibition data to a nonlinear regression model using GraphPad Prism 8.0 (GraphPad Software, San Diego, CA). The % inhibition was calculated using the formula: % inhibition = 100% - [(binding with the tested compound - nonspecific binding)/specific binding] × 100%. The IC50 values were converted to Ki values using the Cheng-Prusoff equation: Ki = IC50/ [1 + ([L*]/KD)], where [L*] is the concentration of the radioligand and KD is the KD of the radioligand.[68]

[2] = target: T2, δ opioid receptor (DOR) (Homo sapiens, UniProt P41143); assay: Competitive radioligand binding assay, DOR
T2 construct: expressed in transfected cells; host or cells: CHO (hDOR-CHO), membrane preparation
Protocol: as §1, §2

[3] = target: T3, κ opioid receptor (KOR) (Mus musculus, UniProt P33534); assay: Competitive radioligand binding assay, KOR
T3 construct: expressed in transfected cells; host or cells: CHO (mKOR-CHO), membrane preparation
Protocol: as §1, §2

[4] = target: T4, MOR (Mus musculus, UniProt P42866); assay: MOR [35S]GTPγS functional assay; format: biochemical
T4 construct: expressed in transfected cells; host or cells: CHO (MOR-CHO), membrane preparation
Protocol: (§3) The [^35S]GTPγS functional assay was used to assess the efficacy of compounds at the MOR, KOR, and DOR. In this assay, 10 μg of MOR-CHO/KOR-CHO/DOR-CHO membrane protein was incubated in 500 μL of TME with 100 mM NaCl, 20 μM GDP, 0.1 nM [^35S]GTPγS, and varying concentrations of the compound for 1.5 h in a 30 °C water bath. Protein concentration was adjusted using the Bradford protein assay. […] After incubation, bound radioactivity was separated by filtration through GF/B glass fiber filters and measured by liquid scintillation counting. All assays were performed in duplicate and repeated at least three times. Net stimulated [35S]GTPγS binding was calculated as agonist-stimulated minus basal binding.

[5] = target: T5, KOR (Mus musculus, UniProt P33534); assay: KOR [35S]GTPγS functional assay; format: biochemical
T5 construct: expressed in transfected cells; host or cells: CHO (KOR-CHO), membrane preparation
Protocol: as §3

[6] = system: morphine-pelleted mice; assay: In vivo opioid withdrawal studies in morphine-pelleted mice; set-up: species or system mouse
Protocol: Swiss Webster mice (six males per group, weighing 25–35 g and aged 6–8 weeks) were used. Following a previously established protocol,[20] a 75 mg morphine pellet was implanted subcutaneously into the back of each mouse, and they were allowed to recover in their home cages. Prior to testing, the mice were habituated for 30 min in an open-topped, clear Plexiglas observation chamber (26 × 26 × 26 cm^3) with lines marking the floor into quadrants. […]. Withdrawal symptoms began within 3 min of antagonist administration. Escape jumps, paw tremors, and wet dog shakes were recorded by counting their occurrences over a 20 min period for each mouse. Results are expressed as the mean ± SEM.

[7] = Caco-2 permeability studies; format: in vitro ADME; details: human, 1 h incubation
Protocol: Caco-2 cells (HTB-37) were cultured in T75 flasks using DMEM supplemented with 10% FBS, 1% glutamine, penicillin, and streptomycin at 37 °C and 5% CO2. Cells were passaged at 80–90% confluency and seeded into Millipore 96-well plates (25,000 cells/well) to form monolayers, with media changed every 2–3 days for 21 days until 100% confluency. Permeability studies involved adding 10 μM compound 6 to the apical (A) or basolateral (B) side and measuring permeation across the monolayer. Lucifer yellow dye (100 μM) was used in the A-side buffer as a control. Incubation lasted 1 h, and permeability was assessed using ranitidine/colchicine (low permeability) and labetalol/propranolol (high permeability) as controls. Samples were collected, quenched with methanol, centrifuged, and analyzed by HPLC-MS/MS to determine peak area ratios.
Data was expressed as [drawing 1] here VR is the volume of the receiver chamber. CR,end is the concentration of the test compound in the receiver chamber at the final time point, Δt denotes the incubation time, and A is the surface area of the cell monolayer. CD,mid is the average midpoint concentration of the test compound on the donor side, calculated as the mean of the donor concentrations at 0 min and at the end time point. […] Test compound concentrations were determined based on their peak areas.

[8] = In vitro metabolic stability in human liver microsomes; format: in vitro ADME; details: 1.0E-07 M
Protocol: (§4) The ADMET assessment including the hERG inhibitory activity, plasma protein binding, in vitro metabolic stability profile, CYP inhibitory effect and mutagenic evaluation were conducted by Eurofins Panlabs, Inc.[21],[61],[69]−[71]

[9] = In vitro metabolic stability in Sprague-Dawley rat liver microsomes; format: in vitro ADME; details: 1.0E-07 M; for % Compound Remaining, mean: rat liver microsomes
Protocol: as §4

[10] = target: T6, CYP2C19 (Homo sapiens, UniProt P33261); assay: Cytochrome P450 inhibition assay, CYP2C19; format: in vitro ADME
T6 construct: Eurofins Panlabs, Inc. (contract laboratory)
Protocol: as §4

[11] = system: Swiss Webster mice; assay: Warm-water tail immersion assay, antagonism of morphine-induced antinociception
[12] = 5 mg/kg s.c., counted over 20 min
[13] = Sprague-Dawley rat liver microsomes

O=C(N[C@H]1CC[C@@]2(O)[C@H]3Cc4ccc(O)c5c4[C@@]2(CCN3CC2CC2)[C@H]1O5)c1nccs1 [Compound 6, 17-Cyclopropylmethyl-3,14β-dihydroxy-4,5α-epoxy-6α-(2′-thiazolylcarboxamido)-morphinan hydrochloride]
Ki [1]: 0.25 ± 0.03 nM
Ki [2]: 41.1 ± 3.58 nM
Selectivity δ/μ ([2]; ratio of Ki values): 164
Ki [3]: 1.3 ± 0.12 nM
Selectivity κ/μ ([3]; ratio of Ki values): 5
EC50 [4]: 2.16 ± 0.38 nM
Emax ([4]; read-out: MOR [35S]GTPγS Binding %Emax of DAMGO, relative to 3 μM DAMGO, mean ± SEM): 6 to 11%
MOR [35S]GTPγS Binding %Emax of DAMGO ([4]; relative to 3 μM DAMGO, mean ± SEM): 11.3 ± 1.30%
EC50 [5]: 3.83 ± 0.62 nM
Emax ([5]; relative to 3 μM U50488H, mean ± SEM, read-out: KOR [35S]GTPγS binding % Emax of U50488H): 23.5 ± 2.03%
Jumps, mean count [6, 12]: 36.8
Paw tremors, mean count [6, 12]: 30.2
Wet dog shake, mean count [6, 12]: 9.8
Precipitated withdrawal symptoms, in words ([6]; s.c.): fewer wet dog shakes and paw tremors at all testing doses than 1 mg/kg NLX
Papp A→B at 1 h, 10 μM [7]: 13.1 ×10⁻⁶ cm/s
Papp B→A at 1 h, 10 μM [7]: 33.2 ×10⁻⁶ cm/s
half-life at 100 nM [8]: > 1 h
microsomal CLint at 100 nM [8]: < 38.5 µL/min/mg
% Compound Remaining, mean ([8]; 15 min): 101%
% Compound Remaining, mean ([8]; 30 min): 101%
% Compound Remaining, mean ([8]; 45 min): 103%
% Compound Remaining, mean ([8]; 60 min): 97%
half-life at 100 nM [9, 13]: > 1 h
microsomal CLint at 100 nM [9, 13]: < 38.5 µL/min/mg
% Compound Remaining, mean ([9]; 15 min): 106%
% Compound Remaining, mean ([9]; 30 min): 115%
% Compound Remaining, mean ([9]; 45 min): 103%
% Compound Remaining, mean ([9]; 60 min): 105%
inhibition at 10 µM ([10]; 1.0E-05 M): 78.4%
inhibition at 100 nM ([10]; 1.0E-07 M): 13.2%
AD50 (95% CL) for counteracting morphine-induced antinociception ([11]; mice, s.c., given 5 min before morphine): 0.043 (0.007–0.25) mg/kg
Antagonism of morphine's antinociception, in words ([11]; single dose of 10 mg/kg s.c. in the presence of morphine (10 mg/kg), n = 6): significantly antagonized

Reference: paper PMC11651181, “Discovery of 6α-Thiazolylcarboxamidonaltrexamine Derivative (NTZ) as a Potent and Central Nervous System Penetrant Opioid Receptor Modulator with Drug-like Properties for Potential Treatment of Opioid Use Disorder” (ACS Pharmacology & Translational Science, 2024)
